Test results published in paper PMC9693052, “Synthesis of 2-Aminopyrimidine Derivatives and Their Evaluation as β-Glucuronidase Inhibitors: In Vitro and In Silico Studies” (Molecules, 2022).

melting point [°C]	SMILES
175 to 177	Nc1nc(Cl)cc(Nc2ccccc2)n1 [Compound 1, 6-Chloro-4-(N-phenyl)-2,4-pyrimidinediamine]
240 to 242	COc1ccccc1Nc1cc(Cl)nc(N)n1 [Compound 2, 6-Chloro-4-(N-(2-methoxy)phenyl)-2,4-pyrimidinediamine]
178 to 180	COc1cccc(Nc2cc(Cl)nc(N)n2)c1 [Compound 3, 6-Chloro-4-(N-(3-methoxy)phenyl)-2,4-pyrimidinediamine]
222 to 223	COc1ccc(Nc2cc(Cl)nc(N)n2)cc1 [Compound 4, 6-Chloro-4-(N-(4-methoxy)phenyl)-2,4-pyrimidinediamine]
182 to 184	COc1ccc(OC)c(Nc2cc(Cl)nc(N)n2)c1 [Compound 5, 6-Chloro-4-(N-(2,5-dimethoxy)phenyl)-2,4-pyrimidinediamine]
245 to 247	COc1cc(Nc2cc(Cl)nc(N)n2)ccc1C [Compound 6, 6-Chloro-4-(N-(3-methoxy-4-methyl)phenyl)-2,4-pyrimidinediamine]
185 to 187	CCCCCCCCOc1ccc(Nc2cc(Cl)nc(N)n2)cc1 [Compound 9]
190 to 192	Nc1nc(Cl)cc(Nc2ccc(Br)cc2)n1 [Compound 10, 6-Chloro-4-(N-(4-bromo)phenyl)-2,4-pyrimidinediamine]
180 to 182	Nc1nc(Cl)cc(Nc2cccc(Br)c2)n1 [Compound 11, 6-Chloro-4-(N-(3-bromo)phenyl)-2,4-pyrimidinediamine]
182 to 184	Nc1nc(Cl)cc(Nc2ccc(Cl)cc2)n1 [Compound 12, 6-Chloro-4-(N-(4-chloro)phenyl)-2,4-pyrimidinediamine]
177 to 179	Nc1nc(Cl)cc(Nc2cccc(Cl)c2)n1 [Compound 13, 6-Chloro-4-(N-(3-chloro)phenyl)-2,4-pyrimidinediamine]
250 to 252	Nc1nc(Cl)cc(Nc2ccc(I)cc2)n1 [Compound 14, 6-Chloro-4-(N-(4-iodo)phenyl)-2,4-pyrimidinediamine]
170 to 172	CC(C)c1ccccc1Nc1cc(Cl)nc(N)n1 [Compound 16, 6-Chloro-4-(N-(2-isopropyl)phenyl)-2,4-pyrimidinediamine]
176 to 178	Cc1cccc(Nc2cc(Cl)nc(N)n2)c1C [Compound 17, 6-Chloro-4-(N-(2,3-dimethyl)phenyl)-2,4-pyrimidinediamine]
173 to 175	Cc1ccc(C)c(Nc2cc(Cl)nc(N)n2)c1 [Compound 18, 6-Chloro-4-(N-(2,5-dimethyl)phenyl)-2,4-pyrimidinediamine]
175 to 177	Cc1ccc(Cl)cc1Nc1cc(Cl)nc(N)n1 [Compound 19, 6-Chloro-4-(N-(5-chloro-2-methyl)phenyl)-2,4-pyrimidinediamine]
178 to 180	Cc1ccc(Nc2cc(Cl)nc(N)n2)c(C)c1 [Compound 20, 6-Chloro-4-(N-(2,4-dimethyl)phenyl)-2,4-pyrimidinediamine]
179 to 180	Cc1ccc(Nc2cc(Cl)nc(N)n2)cc1C [Compound 21, 6-Chloro-4-(N-(3,4-dimethyl)phenyl)-2,4-pyrimidinediamine]
172 to 174	CCc1ccc(Nc2cc(Cl)nc(N)n2)cc1 [Compound 22, 6-Chloro-4-(N-(4-ethyl)phenyl)-2,4-pyrimidinediamine]
175 to 177	CCCCc1ccc(Nc2cc(Cl)nc(N)n2)cc1 [Compound 23, 6-Chloro-4-(N-(4-n-butyl)phenyl)-2,4-pyrimidinediamine]
> 300	Nc1nc(Cl)cc(N2CCNCC2)n1 [Compound 24, 4-Chloro-6-(1-piperazinyl)-2-pyrimidinylamine]
200 to 202	Nc1nc(Cl)cc(N2CCN(c3ccccc3)CC2)n1 [Compound 25, 6-Chloro-6-(4-phenyl-1-piprazinyl)-2-pyrimidine amine]
210 to 212	Nc1nc(Cl)cc(NCc2cccnc2)n1 [Compound 26, 6-Chloro-4-(N-(3-pyridinyl)methyl)-2,4-pyrimidinediamine]
140 to 142	Nc1nc(Cl)cc(NCc2ccco2)n1 [Compound 27, 6-Chloro-4-(N-(furan-2-yl)methyl)-2,4-pyrimidinediamine]

SMILES	melting point [°C]
CCCCOc1ccc(Nc2cc(Cl)nc(N)n2)cc1 [Compound 8, 6-Chloro-4-(N-(4-n-butoxy)phenyl)-2,4-pyrimidinediamine]	180 to 182
